# Reference: US20250032651A1, “[177LU] LUTETIUM-PSMA I&T COMPOSITION AND DOSIMETRY, KIT, METHOD OF MAKING, AND METHOD OF USING THEREOF” (Curium US LLC, priority 2022, published 2025)
# Values joined by “and” are separate entries in the source; they are usually repeats but may differ in a detail not shown here. Equal entries are not always repeated.
# Assay: Plasma PK: gamma-counted plasma radioactivity, bi-exponential fit
# Assay type: in vivo, human
# Settings: plasma
# Procedure: Additionally, for PK assessment, whole blood samples were collected at six timepoints (Pre-Infusion, 1 h, 4 h, 24 h, 48 h, and 168 h) and processed to extract plasma. All plasma samples were gamma counted locally for analysis of pharmacokinetics.
# PK plasma samples were collected at pre-Infusion, 1 h, 4 h, 24 h, 48 h, and 168 h, and counted for radioactivity. Blood samples were first centrifuged to extract plasma, and then the radioactivity in plasma was counted in a gamma counter.
# Whole blood samples were collected as detailed in the protocol Schedule of Events i.e. pre-injection, and then at 1 h, 4 h, 24 h, 48 h, and 168 h post-injection. The samples were first centrifuged to separate plasma, and the radioactivity in the plasma was then measured using a gamma counter. Plasma concentrations were subsequently fitted with a bi-exponential function to derive outcome parameters such as the half-life and clearance rate of the radiopharmaceutical in the plasma.
# [1] = Cycle 3, individual patient values
structure (smiles),measurement,setting,value
"O=C([O-])CC[C@H](NC(=O)N[C@@H](CCCCNC(=O)CCCCCCC(=O)NCCCC[C@@H](NC(=O)[C@@H](Cc1ccccc1)NC(=O)[C@@H](Cc1ccc(O)c(I)c1)NC(=O)CC[C@H](C(=O)[O-])N1CCN(CC(=O)[O-])CCN(CC(=O)[O-])CCN(CC(=O)[O-])CC1)C(=O)[O-])C(=O)[O-])C(=O)[O-].[177Lu+3].[H+].[H+].[H+].[H+].[H+] [^177Lu-PSMA I&T, (3S,7S,26R,29R,32R,37R)-29-benzyl-32-(4-hydroxy-3-iodobenzyl)-5,13,20,28,31,34-hexaoxo-37-(4,7,10-tris(carboxymethyl)-1,4,7,10-tetraazacyclododecan-1-yl)-4,6,12,21,27,30,33-heptaazaheptatriacontane-1,3,7,26,37-pentacarboxylic acid; lutetium-177 (III)]",AUC Total,"Cycle 1, min",3.07 fIA/L × min
same,Clearance Rate,"Cycle 1, min",2.89 L/h
same,Peak Concentration Value,"Cycle 1, min",0.01 fIA/L
same,Time of Peak Concentration,"Cycle 1, min",33.00 min
same,Vc,"Cycle 1, min",9.92 L
same,Vd,"Cycle 1, min",54.60 L
same,AUC Total,"Cycle 3, Mean (n=15)",25.58 fIA/L × min
same,Peak Concentration Value,"Cycle 3, Mean (n=15)",0.05 fIA/L
same,Rate Clearance,"Cycle 3, Mean (n=15)",9.65 L/h
same,Vc,"Cycle 3, Mean (n=15)",16.40 L
same,Vd,"Cycle 3, Mean (n=15)",141.49 L
same,AUC Total,[1],26.16 fIA/L x min and 29.32 fIA/L x min and 20.20 fIA/L x min (2×) and 36.74 fIA/L x min and 16.57 fIA/L x min and 19.01 fIA/L x min and 17.88 fIA/L x min and 23.21 fIA/L x min and 13.86 fIA/L x min and 24.55 fIA/L x min and 22.70 fIA/L x min and 39.62 fIA/L x min and 28.52 fIA/L x min and 36.09 fIA/L x min and 29.33 fIA/L x min
same,Clearance Rate,[1],7.68 L/h and 6.78 L/h and 7.81 L/h and 4.95 L/h and 14.60 L/h and 18.27 L/h and 9.22 L/h and 8.52 L/h and 25.73 L/h and 11.43 L/h and 13.59 L/h and 3.34 L/h and 5.74 L/h and 3.01 L/h and 4.07 L/h
same,Distribution Half-Life,[1],2.07 h and 1.69 h and 1.88 h and 2.30 h and 2.06 h and 1.64 h and 2.55 h and 2.28 h and 1.85 h and 2.11 h and 3.17 h and 2.61 h and 2.22 h
same,Elimination Half-Life,[1],12.51 h and 11.70 h and 10.92 h and 9.33 h and 9.92 h and 8.16 h and 9.10 h and 9.11 h and 10.32 h and 9.75 h and 9.63 h and 10.67 h and 18.37 h and 14.16 h
same,Peak Concentration Value,[1],0.04 fIA/L (7×) and 0.05 fIA/L (4×) and 0.06 fIA/L (2×) and 0.07 fIA/L and 0.03 fIA/L (2×)
same,Time of Peak Concentration,[1],60.00 min (5×) and 68.00 min and 61.00 min (3×) and 66.00 min (2×) and 55.00 min (2×) and 65.00 min and 59.00 min (2×)
same,Vc,[1],11.98 L and 11.38 L and 21.49 L (2×) and 10.66 L and 16.42 L and 16.53 L and 24.53 L and 17.80 L and 20.07 L and 13.50 L and 14.30 L and 15.13 L and 18.12 L and 16.40 L and 17.66 L
same,Vd,[1],129.70 L and 106.80 L and 105.05 L and 70.92 L and 171.89 L and 239.78 L and 121.21 L and 126.73 L and 361.81 L and 158.71 L and 191.15 L and 51.46 L and 152.16 L and 61.59 L and 73.36 L
same,AUC Total,"Cycle 3, individual patients",29.32 fIA/L × min and 20.20 fIA/L × min (2×) and 36.74 fIA/L × min and 16.57 fIA/L × min and 19.01 fIA/L × min and 17.88 fIA/L × min and 23.21 fIA/L × min and 13.86 fIA/L × min and 24.55 fIA/L × min and 22.70 fIA/L × min and 39.62 fIA/L × min and 28.52 fIA/L × min and 36.09 fIA/L × min and 29.33 fIA/L × min and 26.16 fIA/L × min
same,Peak Concentration Value,"Cycle 3, individual patients",0.06 fIA/L (2×) and 0.04 fIA/L (7×) and 0.07 fIA/L and 0.03 fIA/L (2×) and 0.05 fIA/L (4×)
same,Vc,"Cycle 3, individual patients",11.38 L and 21.49 L (2×) and 10.66 L and 16.42 L and 16.53 L and 24.53 L and 17.80 L and 20.07 L and 13.50 L and 14.30 L and 15.13 L and 18.12 L and 16.40 L and 17.66 L and 11.98 L
same,Vd,"Cycle 3, individual patients",106.80 L and 105.05 L and 70.92 L and 171.89 L and 239.78 L and 121.21 L and 126.73 L and 361.81 L and 158.71 L and 191.15 L and 51.46 L and 152.16 L and 61.59 L and 73.36 L and 129.70 L
same,AUC Total,"Cycle 3, max",39.62 fIA/L × min
same,Peak Concentration Value,"Cycle 3, max",0.07 fIA/L
same,Rate Clearance,"Cycle 3, max",25.73 L/h
same,Vc,"Cycle 3, max",24.53 L
same,Vd,"Cycle 3, max",361.81 L
same,AUC Total,"Cycle 3, median",24.55 fIA/L × min
same,Peak Concentration Value,"Cycle 3, median",0.04 fIA/L
same,Rate Clearance,"Cycle 3, median",7.81 L/h
same,Vc,"Cycle 3, median",16.42 L
same,Vd,"Cycle 3, median",126.73 L
same,AUC Total,"Cycle 3, min",13.86 fIA/L × min
same,Peak Concentration Value,"Cycle 3, min",0.03 fIA/L
same,Rate Clearance,"Cycle 3, min",3.01 L/h
same,Vc,"Cycle 3, min",10.66 L
same,Vd,"Cycle 3, min",51.46 L
same,"AUC Total, Mean","Cycle 3, n = 15",25.58 fIA/L x min
same,"AUC Total, max","Cycle 3, n = 15",39.62 fIA/L x min
same,"AUC Total, median","Cycle 3, n = 15",24.55 fIA/L x min
same,"AUC Total, min","Cycle 3, n = 15",13.86 fIA/L x min
same,"Clearance Rate, Mean","Cycle 3, n = 15",9.65 L/h
same,"Clearance Rate, max","Cycle 3, n = 15",25.73 L/h
same,"Clearance Rate, median","Cycle 3, n = 15",7.81 L/h
same,"Clearance Rate, min","Cycle 3, n = 15",3.01 L/h
same,"Distribution Half-Life, Mean","Cycle 3, n = 15",2.17 h
same,"Distribution Half-Life, max","Cycle 3, n = 15",3.17 h
same,"Distribution Half-Life, median","Cycle 3, n = 15",2.07 h
same,"Distribution Half-Life, min","Cycle 3, n = 15",1.64 h
same,"Elimination Half-Life, Mean","Cycle 3, n = 15",10.89 h
same,"Elimination Half-Life, max","Cycle 3, n = 15",18.37 h
same,"Elimination Half-Life, median","Cycle 3, n = 15",9.92 h
same,"Elimination Half-Life, min","Cycle 3, n = 15",8.16 h
same,"Peak Concentration Value, Mean","Cycle 3, n = 15",0.05 fIA/L
same,"Peak Concentration Value, max","Cycle 3, n = 15",0.07 fIA/L
same,"Peak Concentration Value, median","Cycle 3, n = 15",0.04 fIA/L
same,"Peak Concentration Value, min","Cycle 3, n = 15",0.03 fIA/L
same,Time of Peak Concentration,"Cycle 3, n = 15",55.00 min
same,"Time of Peak Concentration, Mean","Cycle 3, n = 15",60.67 min
same,"Time of Peak Concentration, max","Cycle 3, n = 15",68.00 min
same,"Time of Peak Concentration, median","Cycle 3, n = 15",60.00 min
same,"Vc, Mean","Cycle 3, n = 15",16.40 L
same,"Vc, max","Cycle 3, n = 15",24.53 L
same,"Vc, median","Cycle 3, n = 15",16.42 L
same,"Vc, min","Cycle 3, n = 15",10.66 L
same,"Vd, Mean","Cycle 3, n = 15",141.49 L
same,"Vd, max","Cycle 3, n = 15",361.81 L
same,"Vd, median","Cycle 3, n = 15",126.73 L
same,"Vd, min","Cycle 3, n = 15",51.46 L
